Experimental data reported in patent US8455525B2, “Selective androgen receptor modulators” (Radius Health, Inc., priority 2008, dated 2013).
Counter-ions that a name gives are not always drawn. Like-named read-outs stand apart in the source and are kept apart here.

Target: T1, androgen receptor (AR) (Rattus norvegicus, UniProt P15207)
T1 construct: purchased Invitrogen, Madison, Wis
T1 sequence (P15207 651-902 limits assumed): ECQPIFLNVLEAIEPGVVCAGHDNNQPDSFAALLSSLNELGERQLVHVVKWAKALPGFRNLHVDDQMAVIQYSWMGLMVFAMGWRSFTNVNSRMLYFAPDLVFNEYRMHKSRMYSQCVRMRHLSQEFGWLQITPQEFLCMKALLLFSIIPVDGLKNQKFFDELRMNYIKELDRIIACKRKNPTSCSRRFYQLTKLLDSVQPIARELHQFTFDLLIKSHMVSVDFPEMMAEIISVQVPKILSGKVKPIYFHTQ
Test: androgen receptor binding assay (fluorescence polarization, Fluormone AL Green competition)
Method: The assay was performed as specified by the manufacturer (Invitrogen, Madison, Wis.). Briefly, 1 μl of 10 mM compound was added to 500 μl of AR screening buffer in a 1.5 ml eppendorf tube to make a 2×10^−5M stock. 10-fold serial dilutions of the test compounds were prepared ranging in concentration from 10^−5M to 10^−12M. Each dilution was added in triplicate to a black 384-microtiter plate. The test compounds will be diluted 2-fold in the final reaction. 2×AR-Fluormone™ complex was prepared with 2 nM Flourmone AL Green™ and 30 nM AR. 25 μl of 2× complex was aliquoted to each reaction well, such that the final reaction volume was 50 μl per well. Plate was sealed with a foil cover and incubated in the dark at room temperature for 4 h. Polarization values for each well were measured. The polarization values were plotted against the concentration of the test compound. […] As a control, a competition curve for R1881 (methyltrienolone) was performed for each assay. Curve Fitting was performed using GraphPad Prism® software from GraphPad™ Software Inc. Binding data are reported as a single determination if the experiment was run once only and as the average of experiments if the binding experiment was performed two or more times with that compound.
Where multiple data points have been taken, the value reported is the average of the multiple determinations.

[1] = single determination or average of multiple determinations, read-out: Binding IC50 (AR-Binding Affinity)

| Structure (SMILES) | IC50 [nM] | IC50 [1] [nM] |
| --- | --- | --- |
| C[C@H](O)[C@@H](Nc1ccc(C#N)c(Cl)c1)c1nnc(-c2ccc(C#N)cc2)o1 [Example 50, 2-Chloro-4-((1R,2S)-1-(5-(4-cyanophenyl)-1,3,4-oxadiazol-2-yl)-2-hydroxypropylamino)benzonitrile] | 5 |  |
| C[C@@H](O)[C@@H](Nc1ccc(C#N)c(Cl)c1)c1nnc(-c2ccc(C#N)cc2)o1 [Example 46, 2-Chloro-4-((1R,2R)-1-(5-(4-cyanophenyl)-1,3,4-oxadiazol-2-yl)-2-hydroxypropylamino)-benzonitrile] | 6 |  |
| Cc1c(N[C@H](CO)c2nnc(-c3ccccc3)o2)ccc(C#N)c1Cl [Example 17, (R)-2-chloro-4-(2-hydroxy-1-(5-phenyl-1,3,4-oxadiazol-2-yl)ethylamino)-3-methylbenzonitrile] | 10 |  |
| Cc1c(N[C@@H](c2nnc(-c3ccc(F)cc3)o2)[C@H](C)O)ccc(C#N)c1Cl [Example 5, 2-Chloro-4-((1R,2S)-1-(5-(4-fluorophenyl)-1,3,4-oxadiazol-2-yl)-2-hydroxypropylamino)-3-methylbenzonitrile] | 50 |  |
| CCc1c(N[C@@H](c2nnc(-c3ccc(C#N)cc3)o2)[C@@H](C)O)ccc(C#N)c1Cl [Example 54, 2-Chloro-4-((1R,2R)-1-(5-(4-cyanophenyl)-1,3,4-oxadiazol-2-yl)-2-hydroxypropylamino)-3-ethylbenzonitrile] | 1 |  |
| Cc1nnc([C@H](Nc2ccc(C#N)c(Cl)c2C)[C@H](C)O)o1 [Example 43, 2-Chloro-4-((1R,2S)-2-hydroxy-1-(5-methyl-1,3,4-oxadiazol-2-yl)propylamino)-3-methylbenzonitrile hydrochloride] | 3 |  |
| Cc1c(N[C@@H](c2nnc(-c3ccc(-n4cccn4)cc3)o2)[C@H](C)O)ccc(C#N)c1Cl [Example 53, 4-((1R,2S)-1-(5-(4-(1H-Pyrazol-1-yl)phenyl)-1,3,4-oxadiazol-2-yl)-2-hydroxypropylamino)-2-chloro-3-methylbenzonitrile] | 1 |  |
| C[C@H](O)[C@@H](Nc1ccc(C#N)c2ccccc12)c1nnc(-c2ccccc2)o1 [Example 13, 4-((1R,2S)-2-hydroxy-1-(5-phenyl-1,3,4-oxadiazol-2-yl)propylamino)-1-naphthonitrile] | 5 |  |
| CCc1c(N[C@@H](c2nnc(-c3ccccc3)o2)[C@H](C)O)ccc(C#N)c1Cl [Example 11, 2-chloro-3-ethyl-4-((1R,2S)-2-hydroxy-1-(5-phenyl-1,3,4-oxadiazol-2-yl)propylamino)benzonitrile] | 12 |  |
| Cc1c(N[C@@H](c2nnc(-c3ccc(CO)cc3)o2)[C@H](C)O)ccc(C#N)c1Cl [Example 49, 2-Chloro-4-((1R,2S)-2-hydroxy-1-(5-(4-(hydroxymethyl)phenyl)-1,3,4-oxadiazol-2-yl)propylamino)-3-methylbenzonitrile] | 2 |  |
| C[C@@H](O)[C@@H](Nc1ccc(C#N)c2sccc12)c1nnc(-c2ccccc2)o1 [Example 65, 4-((1R,2R)-2-hydroxy-1-(5-phenyl-1,3,4-oxadiazol-2-yl)propylamino)benzo[b]thiophene-7-carbonitrile] | 1 |  |
| COc1cccc(-c2nnc([C@H](Nc3ccc(C#N)c(Cl)c3C)[C@H](C)O)o2)c1 [Example 6, 2-chloro-4-((1R,2S)-2-hydroxy-1-(5-(3-methoxyphenyl)-1,3,4-oxadiazol-2-yl)propylamino)-3-methylbenzonitrile] | 16 |  |
| Cc1c(N[C@H](CO)c2nnc(-c3ccc(C#N)cc3)o2)ccc(C#N)c1Cl [Example 58, (R)-2-Chloro-4-(1-(5-(4-cyanophenyl)-1,3,4-oxadiazol-2-yl)-2-hydroxyethylamino)-3-methylbenzonitrile] | 10 |  |
| C[C@H](O)[C@@H](Nc1ccc(C#N)c(C(F)(F)F)c1)c1nnc(-c2ccccc2)o1 [Example 16, 4-((1R,2S)-2-hydroxy-1-(5-phenyl-1,3,4-oxadiazol-2-yl)propylamino)-2-(trifluoromethyl)benzonitrile] | 35 |  |
| C[C@H](O)[C@@H](Nc1ccc(C#N)c(C(F)(F)F)c1)c1nnc(-c2ccc(C#N)cc2)o1 [Example 45, 4-((1R,2S)-1-(5-(4-Cyanophenyl)-1,3,4-oxadiazol-2-yl)-2-hydroxypropylamino)-2-(trifluoromethyl)benzonitrile] | 470 |  |
| Cc1c(N[C@@H](c2nnc(-c3ccc(C#N)cc3)o2)[C@@H](C)O)ccc(C#N)c1C(F)(F)F [Example 31, 4-((1R,2R)-1-(5-(4-cyanophenyl)-1,3,4-oxadiazol-2-yl)-2-hydroxypropylamino)-3-methyl-2-(trifluoromethyl)benzonitrile] | 5.9 |  |
| Cc1c(N[C@@H](c2nnc(-c3ccc(F)c(O)c3)o2)[C@H](C)O)ccc(C#N)c1Cl [Example 40, 2-Chloro-4-((1R,2S)-1-(5-(4-fluoro-3-hydroxyphenyl)-1,3,4-oxadiazol-2-yl)-2-hydroxypropylamino)-3-methylbenzonitrile] | 0.2 |  |
| Cc1c(NC(c2nnc(-c3ccccc3)o2)C(O)c2ccccc2)ccc(C#N)c1Cl (racemic) [Example 38, DL-Threo-2-chloro-4-(2-hydroxy-2-phenyl-1-(5-phenyl-1,3,4-oxadiazol-2-yl)ethylamino)-3-methylbenzonitrile] | 60 |  |
| Cc1c(N[C@@H](c2nnc(-c3ccc(F)cc3)s2)[C@@H](C)O)ccc(C#N)c1Cl [Example 28, 2-chloro-4-((1R,2R)-1-(5-(4-fluorophenyl)-1,3,4-thiadiazol-2-yl)-2-hydroxypropylamino)-3-methylbenzonitrile] | 16 |  |
| Cc1c(N[C@@H](c2nnc(-c3ccccc3)s2)[C@@H](C)O)ccc(C#N)c1Cl [Example 26, 2-chloro-4-((1R,2R)-2-hydroxy-1-(5-phenyl-1,3,4-thiadiazol-2-yl)propylamino)-3-methylbenzonitrile] | 10 |  |
| C[C@H](O)[C@@H](Nc1ccc(C#N)c2sccc12)c1nnc(-c2ccc(C#N)cc2)o1 [Example 60, 4-((1R,2S)-1-(5-(4-cyanophenyl)-1,3,4-oxadiazol-2-yl)-2-hydroxypropylamino)benzo[b]thiophene-7-carbonitrile] |  | 8 |
| C[C@@H](O)[C@@H](Nc1ccc(C#N)c2sccc12)c1nnc(-c2ccc(C#N)cc2)o1 [Example 61, 4-((1R,2R)-1-(5-(4-cyanophenyl)-1,3,4-oxadiazol-2-yl)-2-hydroxypropylamino)benzo[b]thiophene-7-carbonitrile] |  | 1 |
| Cc1c(N[C@@H](c2nnc(-c3ccc(S(C)(=O)=O)cc3)o2)[C@@H](C)O)ccc(C#N)c1Cl [Example 25, 2-chloro-4-((1R,2R)-2-hydroxy-1-(5-(4-(methylsulfonyl)phenyl)-1,3,4-oxadiazol-2-yl)propylamino)-3-methylbenzonitrile] | 258 |  |
| Cc1c(N[C@@H](c2nnc(-c3ccc(F)c(F)c3)o2)[C@@H](C)O)ccc(C#N)c1Cl [Example 39, 2-Chloro-4-((1R,2R)-1-(5-(3,4-difluorophenyl)-1,3,4-oxadiazol-2-yl)-2-hydroxypropylamino)-3-methylbenzonitrile] | 0.1 |  |
| C[C@H](O)[C@@H](Nc1ccc(C#N)c(Cl)c1Cl)c1nnc(-c2ccc(Cl)cc2)o1 [Example 34, 2,3-Dichloro-4-((1R,2S)-1-(5-(4-chlorophenyl)-1,3,4-oxadiazol-2-yl)-2-hydroxypropylamino)benzonitrile] | 4 |  |
